The source of these data is PubChem BioAssay (NCI).

“And” between values parts separate entries of the source, which are not always exact repeats. Equal values may be shown once.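 Following 48 hours of exposure in 96-well plates, responses at five concentrations were used to interpolate endpoints linearly. GI50 marks 50% less growth. TGI: concentration producing complete growth inhibition.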 Bounds are passed on as bounds.

Test systems include A549 NSCLC; CCRF-CEM leukemia; K-562 leukemia; KM12 colon; LOX IMVI melanoma; SF-268 CNS; SF-539 CNS; SK-MEL-2 melanoma; SN12C renal; SW-620 colon.
What all share (assay): inhibition of tumour cell growth, NCI panel, 48 h

As for `On1c(-c2ccccc2)nc2ccccc2c1=S`, the TGI with A549 NSCLC, with CCRF-CEM leukemia, with K-562 leukemia, in the experiment on KM12 colon, in the experiment with LOX IMVI melanoma and with SF-268 CNS was more than 100 µM in each case. Further, the TGI in the experiment with SF-539 CNS is more than 100 µM; with SK-MEL-2 melanoma, 42.8 µM; in the experiment with SN12C renal, more than 100 µM; in the experiment with SW-620 colon it was more than 100 µM.
Regarding `COc1ccc2c(c1)CCN1CCc3ccccc3CC21` (configuration not stated), the TGI in the experiment with A549 NSCLC is more than 100 µM; in the experiment with CCRF-CEM leukemia, more than 100 µM; in the experiment on K-562 leukemia, more than 100 µM; with KM12 colon, more than 100 µM; in the experiment with LOX IMVI melanoma, 58.1 µM; with SF-268 CNS, more than 100 µM. In addition, the TGI in the experiment with SF-539 CNS, in the experiment with SK-MEL-2 melanoma, with SN12C renal and in the experiment with SW-620 colon was more than 100 µM in each case.
`OCc1ccc(C2CC(c3ccco3)=NN2c2ccccc2)o1` (configuration not stated): the TGI in the experiment with A549 NSCLC, in the experiment on CCRF-CEM leukemia, in the experiment on K-562 leukemia, with KM12 colon, in the experiment with LOX IMVI melanoma and in the experiment with SF-268 CNS was more than 100 µM throughout. Moreover, the TGI in the experiment with SF-539 CNS, in the experiment on SK-MEL-2 melanoma, in the experiment with SN12C renal and in the experiment on SW-620 colon was more than 100 µM in each case.
As for `[N-]=[N+]=NC1=C(c2ccccn2)C(=O)c2cccc3cccc1c23`, the TGI was more than 100 µM in the experiment with A549 NSCLC; more than 100 µM in the experiment on CCRF-CEM leukemia; more than 100 µM in the experiment with K-562 leukemia; more than 100 µM in the experiment on KM12 colon; more than 100 µM in the experiment with LOX IMVI melanoma; 65.9 µM in the experiment with SF-268 CNS. Moreover, the TGI with SF-539 CNS, with SK-MEL-2 melanoma, with SN12C renal and with SW-620 colon was more than 100 µM throughout.
With `C=CCOc1ccc(C2(O)c3ccccc3C3=NCCCN32)cc1` (configuration not stated), the TGI was more than 100 µM in the experiment on A549 NSCLC; more than 100 µM in the experiment on CCRF-CEM leukemia; more than 87.2 µM in the experiment on K-562 leukemia; more than 100 µM with KM12 colon; more than 100 µM with LOX IMVI melanoma; more than 100 µM in the experiment with SF-268 CNS. Also, the TGI is more than 100 µM with SF-539 CNS, 47 µM in the experiment with SK-MEL-2 melanoma, more than 100 µM with SN12C renal and more than 100 µM in the experiment on SW-620 colon.
For the compound `Oc1cccc(-c2nc3cc(F)ccc3s2)c1`, the TGI in the experiment with A549 NSCLC was 88.5 µM; in the experiment on CCRF-CEM leukemia, 73.8 µM; in the experiment with K-562 leukemia, more than 100 µM; in the experiment on KM12 colon, 34.6 µM; with LOX IMVI melanoma, 34.7 µM; in the experiment on SF-268 CNS it was 65.6 µM. For the same compound, the TGI was 55.8 µM in the experiment on SF-539 CNS, 43.2 µM in the experiment with SK-MEL-2 melanoma, 82.7 µM in the experiment with SN12C renal and more than 100 µM in the experiment with SW-620 colon.
Consider `CC(C)(C)C(=O)CC1=Nc2ccccc2SC1(O)CC(=O)C(C)(C)C` (configuration not stated), for which the TGI in the experiment on A549 NSCLC is 51 µM; in the experiment with CCRF-CEM leukemia, 32.2 µM; with K-562 leukemia, 97.1 µM; in the experiment on KM12 colon, more than 100 µM; in the experiment on LOX IMVI melanoma, 49.4 µM; with SF-268 CNS it was 81.1 µM. The TGI in the experiment with SF-539 CNS is 61.3 µM; in the experiment on SK-MEL-2 melanoma it was 32 µM; in the experiment with SN12C renal, 73.2 µM; in the experiment on SW-620 colon it was more than 100 µM.
On to `COC1C=COC2(C)Oc3c(C)c(O)c4c(O)c(c(C5SCCS5)c(O)c4c3C2=O)NC(=O)C(C)=C/C=C\C(C)C2OC(C)(C)OC(C2C)C(C)C(OC(C)=O)C1C` (configuration not stated), for which the TGI in the experiment on A549 NSCLC is 22.6 µM; in the experiment on CCRF-CEM leukemia, more than 100 µM; in the experiment on K-562 leukemia, more than 100 µM; in the experiment with KM12 colon, more than 100 µM; in the experiment on LOX IMVI melanoma, 28.3 µM; in the experiment on SF-268 CNS it was 29.3 µM. The TGI in the experiment on SF-539 CNS was 86.4 µM; in the experiment with SK-MEL-2 melanoma, 23.2 µM; in the experiment with SN12C renal, 16.6 µM; in the experiment on SW-620 colon, more than 100 µM.
Turning to `Nc1ccc(C(=O)N2CCC[C@H]2CO)c(N)c1`, the TGI with A549 NSCLC, in the experiment on CCRF-CEM leukemia, in the experiment on K-562 leukemia, in the experiment with KM12 colon, with LOX IMVI melanoma and in the experiment with SF-268 CNS was more than 100 µM in each case. Also, the TGI in the experiment with SF-539 CNS, in the experiment with SK-MEL-2 melanoma, in the experiment on SN12C renal and in the experiment with SW-620 colon was more than 100 µM each time.
Regarding `CN(C)CCOC1(Cc2ccc(F)cc2)CCC(C(C)(C)C)CC1` (configuration not stated), the TGI was 22 µM and 25.3 µM with A549 NSCLC; 9.82 µM and 12.9 µM in the experiment on CCRF-CEM leukemia; 5.05 µM and 7.04 µM in the experiment on K-562 leukemia; 19.3 µM and 18.1 µM in the experiment on KM12 colon; 7.05 µM and 10.5 µM in the experiment on LOX IMVI melanoma; 27.2 µM and 28 µM in the experiment with SF-268 CNS. The TGI is 19.1 µM and 27.1 µM in the experiment on SF-539 CNS; 24.4 µM and 8.73 µM with SK-MEL-2 melanoma; 25 µM and 27.5 µM in the experiment on SN12C renal; 16.6 µM and 20.7 µM in the experiment with SW-620 colon. Also, the GI50 in the experiment on SF-539 CNS was 5.73 µM and 13.4 µM; in the experiment with SK-MEL-2 melanoma it was 10800 nM and 2780 nM.
In the case of `Cn1c2ccccc2c(=NNc2cccc(C(=O)O)c2)c2ccccc21`, the TGI in the experiment with A549 NSCLC was 27.3 µM; in the experiment with CCRF-CEM leukemia, 25.6 µM; in the experiment with K-562 leukemia, 13.8 µM; in the experiment on KM12 colon, 47.5 µM; in the experiment with LOX IMVI melanoma, 17.9 µM; in the experiment on SF-268 CNS it was 39 µM. Moreover, the TGI was 46.9 µM in the experiment on SF-539 CNS, 35.4 µM in the experiment on SK-MEL-2 melanoma, 30.3 µM in the experiment with SN12C renal and 35.5 µM in the experiment on SW-620 colon.
As for `Nc1ccc(S2(c3ccc(N)cc3)C=C(c3ccccc3)C(c3ccccc3)=C2)cc1`, the TGI in the experiment with A549 NSCLC, with CCRF-CEM leukemia, with K-562 leukemia, in the experiment with KM12 colon, in the experiment with LOX IMVI melanoma and with SF-268 CNS was more than 100 µM each time. In addition, the TGI in the experiment with SF-539 CNS was more than 100 µM; with SK-MEL-2 melanoma, more than 88.4 µM; with SN12C renal, more than 100 µM; in the experiment on SW-620 colon, more than 100 µM.
For the compound `CC(=O)NC1c2ccccc2C(C)(C)C12CCC1(CC2)OCCO1` (configuration not stated), the TGI with A549 NSCLC, in the experiment on CCRF-CEM leukemia, in the experiment with K-562 leukemia, in the experiment on KM12 colon, with LOX IMVI melanoma and in the experiment with SF-268 CNS was more than 100 µM in each case. Besides, the TGI in the experiment on SF-539 CNS was more than 100 µM; with SK-MEL-2 melanoma, more than 100 µM; in the experiment with SN12C renal, more than 10 µM; in the experiment with SW-620 colon it was more than 100 µM.
Turning to `Cc1ccc(S(=O)(=O)NC(=O)N[C@@H](Cc2cnc[nH]2)C(=O)O)cc1`, the TGI in the experiment with A549 NSCLC, with CCRF-CEM leukemia, with K-562 leukemia, in the experiment on KM12 colon, in the experiment on LOX IMVI melanoma and in the experiment with SF-268 CNS was more than 100 µM each time. Moreover, the TGI in the experiment on SF-539 CNS, with SK-MEL-2 melanoma, in the experiment with SN12C renal and with SW-620 colon was more than 100 µM each time.
As to `Cc1nc2sc3ccccc3n2c(=O)c1N=Nc1ccc(Cl)cc1`, the TGI with A549 NSCLC, with CCRF-CEM leukemia, with K-562 leukemia, with KM12 colon, in the experiment on LOX IMVI melanoma and in the experiment on SF-268 CNS was more than 100 µM throughout. The TGI in the experiment with SF-539 CNS, in the experiment with SK-MEL-2 melanoma, in the experiment on SN12C renal and in the experiment with SW-620 colon was more than 100 µM each time.
Regarding `CC(=O)[C@@]1(O)CC[C@H]2[C@@H]3C[C@H](C)C4=CC(=O)C=C[C@]4(C)[C@@]3(F)[C@@H](O)C[C@@]21C`, the TGI with A549 NSCLC, in the experiment on CCRF-CEM leukemia, with K-562 leukemia, in the experiment on KM12 colon, in the experiment on LOX IMVI melanoma and with SF-268 CNS was more than 100 µM each time. Also, the TGI in the experiment with SF-539 CNS, in the experiment with SK-MEL-2 melanoma, with SN12C renal and in the experiment with SW-620 colon was more than 100 µM throughout.
With `N#Cc1c(Cl)cc(Cl)n2c1nc1ccccc12`, the TGI in the experiment on A549 NSCLC was 34.7 µM; in the experiment with CCRF-CEM leukemia it was more than 100 µM; in the experiment with K-562 leukemia, 11.5 µM; in the experiment on KM12 colon, 33.1 µM; in the experiment on LOX IMVI melanoma it was 18.7 µM; in the experiment on SF-268 CNS, 40.1 µM. For the same compound, the TGI in the experiment with SF-539 CNS was 12 µM; with SK-MEL-2 melanoma, 33.4 µM; in the experiment on SN12C renal, 42.1 µM; with SW-620 colon, more than 45 µM.
For `CCOC(=O)C1C2CCC1CC(=NNc1ccc([N+](=O)[O-])cc1[N+](=O)[O-])C2` (configuration not stated), the TGI with A549 NSCLC, in the experiment on CCRF-CEM leukemia, in the experiment with K-562 leukemia, with KM12 colon, in the experiment on LOX IMVI melanoma and with SF-268 CNS was more than 50 µM throughout. Further, the TGI in the experiment with SF-539 CNS, in the experiment with SK-MEL-2 melanoma, in the experiment on SN12C renal and in the experiment with SW-620 colon was more than 50 µM in each case.
Regarding `COc1ccc(-c2nn(-c3ccc(NC(=O)Nc4cc(C(F)(F)F)cc(C(F)(F)F)c4)cc3)cc2-c2ccncc2)cc1Cl`, the GI50 in the experiment on A549 NSCLC is 2840 nM; with CCRF-CEM leukemia, 2280 nM; with K-562 leukemia, 2770 nM; in the experiment on KM12 colon, 2100 nM; with LOX IMVI melanoma, 3.31 µM; with SF-268 CNS, 3.71 µM. Besides, the GI50 was 1.87 µM in the experiment with SF-539 CNS, 1930 nM with SK-MEL-2 melanoma, 3.13 µM with SN12C renal and 2990 nM in the experiment on SW-620 colon. Besides, the TGI in the experiment on A549 NSCLC was more than 100 µM; in the experiment on CCRF-CEM leukemia, more than 100 µM; with K-562 leukemia, more than 100 µM; in the experiment on KM12 colon it was 7.73 µM; in the experiment with LOX IMVI melanoma, more than 100 µM; in the experiment on SF-268 CNS it was 85.8 µM. Also, the TGI with SF-539 CNS was 5.37 µM; in the experiment with SK-MEL-2 melanoma, 4.38 µM; with SN12C renal it was 16.6 µM; in the experiment with SW-620 colon it was more than 100 µM.
